Laboratory results as given in patent US6440417B1, “Antibodies to argatroban derivatives and their use in therapeutic and diagnostic treatments” (ConjuChem, Inc., priority 1998, dated 2002).

Tests used:
plasma proteins = assay: Western blot of plasma proteins derivatized in vitro with argatroban derivatives; conditions: human and rat whole blood, 100 μM, 30 minutes; bands from less than 39.5 kDa to greater than 193 kDa
Method: (§1) Whole blood samples were treated with argatroban derivatives to yield plasma proteins and red blood cells derivatized with argatroban. Fresh citrated human, rabbit (New Zealand) and rat (Sprague Dawley) whole blood samples were incubated with 100 μM (final concentration) Argatroban-C6-NHS, Argatroban-C16-Maleimide or DMSO, for 30 minutes at room temperature under gentle agitation. After quenching the reaction with 1 mM lysine or cysteine, the whole blood was centrifuged 10 min at 2500 rpm. Labelled plasma were recovered and stored at −20° C. until use. Labelled red blood cells (RBCs) were washed three times in PBS (5 min at 2500 rpm).
Labeled plasma were diluted 1/10 in water. Five μl of diluted plasma (·30 μg protein) were mixed with electrophoresis buffer and separated by SDS-PAGE using an 8% polyacrylamide gel, under non-reducing conditions. Plasma proteins were then transferred onto nitrocellulose sheet with a semi-dry transfer apparatus. Efficacy of transfer was checked by reversible staining with 1% Ponceau Red. The blot was saturated with tris-buffered saline (TBS) containing 5% gelatin and 0.1% Tween 20, for 2H at 37° C. to minimize non-specific binding. After three washes with TBS-1 % Tween 20 (TBS-T), the blot was incubated with rabbit anti-argatroban polyclonal serum from diluted 1/20,000 in TBS containing 1% gelatin and 0.1% Tween 20 (TBS-GT), for 1H30 at RT. […]

red blood cells = assay: Flow cytometry of red blood cells derivatized in vitro with argatroban derivatives; format: cell-based, human, rabbit, rat; conditions: RBCs from whole blood incubated with 100 μM derivative, each sample
Method: as §1
After the last centrifugation, a 10% suspension of labelled red blood cells (RBCS) was made in PBS. Five μl of the suspension was mixed with rabbit anti-argatroban polyclonal sera from Example 4 diluted 1/500 in PBS-1% BSA and incubated at room temperature for 1 hour. After three washes in PBS, the RBCs were incubated with 50 μl of FITC-labeled goat anti-rabbit Ig (BioAtlantic, Nantes) diluted 1/50 in PBS-1% BSA for 1 hour in the dark. After three washes, the RBCs were resuspended in 0.5 ml PBS and fluorescence was detected by flow cytofluorometer (Becton Dickinson).

rat plasma proteins = assay: Western blot of plasma from rats dosed in vivo; conditions: intravenous, 5 minutes and 24 hours after dosing
Method: Fifteen Sprague-Dawley rats weighing 250-300 grams were randomized for treatment with either argatroban and argatroban derivative. Rats treated with argatroban received dosages of either 3 or 10 mg/kg (n=6 and respectively) administered intravenously. […] A control group of rats was treated with intravenous injection of DMSO (0.2 ml/kg, n=3). The study was divided into two groups. Plasma samples were obtained from group 1 rats at time periods of 5 min, 15 min, and 24 hrs after injection. Plasma samples were obtained from group 2 rats at 1 hr, 3 hr and 24 hr following injection. […] The collected plasma samples from these rats were frozen for subsequent evaluation of the extent of conjugation to plasma proteins using ELISA and western blot analysis.
Plasma samples obtained from the rats were diluted 1:50 in PBS and then further diluted 1:1 with 2× Laemmli non-reducing buffer (Novex). The samples were boiled for 5 min. after which 25 ul of each sample were loaded per well of 8% acrylamide SDS-PAGE precast gel (10 lanes/1 mm gel, Novex). Samples were run in replicates for staining with Coomassie blue and for transfer to nitrocellulose.
Gels were run at a constant voltage of 120 V until the dye fronts reached the bottom of gels. […]

Row | SMILES | protein bands identified in derivatized plasma samples (plasma proteins) | mean fluorescence signal relative to argatroban-maleimide derivatized cells (red blood cells) [times] | plasma protein labelling / association with anti-argatroban antisera (rat plasma proteins)
1 | CC1CNc2c(cccc2S(=O)(=O)N[C@@H](CCCN=C(N)N)C(=O)N2CC[C@@H](C)C[C@@H]2C(=O)NCCCCCC(=O)ON2C(=O)CCC2=O)C1.Cl.Cl (stereo partly drawn) [argatroban-NHS] | Numerous protein bands | 3 to 7 | –
2 | CC1CNc2c(cccc2S(=O)(=O)N[C@@H](CCCNC(=N)N)C(=O)N2CC[C@@H](C)C[C@@H]2C(=O)O)C1 (stereo partly drawn) [argatroban] | – | – | minimal protein association
